Data taken from US20240132431A1, “METHOD FOR ALKYLATING ACIDIC FUNCTIONAL GROUP” (Chugai Seiyaku Kabushiki Kaisha, priority 2021, published 2024).

Target: T1, Bcl-2 protein (Recombinant Human Bcl-2 Protein) (Homo sapiens, UniProt P10415)
T1 construct: purchased Novus NBP2-34889
Assay: Binding evaluation of mixture library compounds to Bcl-2 using AS-MS (affinity selection mass spectrometry)
Details: AS-MS, mixture library, Bcl-2, ASMS Ratio(%)=(A−C)/B×100; for ASMS ratio (%) n = 1: replicate n = 1; for ASMS ratio (%) n = 2: replicate n = 2
Method in brief: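 Readout is ASMS Ratio (%), (A−C)/B×100, from reversed-phase LC/MS of SEC-passed extracts, with protein-free unfiltered standard (B) and protein-free SEC blank (C). Recombinant human Bcl-2 at 20 μM final met ~1200 pooled compounds at […] each for 1 h, 23° C., dark, in Tris-HCl pH 7.4 buffer.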

T1 sequence (P10415 whole entry): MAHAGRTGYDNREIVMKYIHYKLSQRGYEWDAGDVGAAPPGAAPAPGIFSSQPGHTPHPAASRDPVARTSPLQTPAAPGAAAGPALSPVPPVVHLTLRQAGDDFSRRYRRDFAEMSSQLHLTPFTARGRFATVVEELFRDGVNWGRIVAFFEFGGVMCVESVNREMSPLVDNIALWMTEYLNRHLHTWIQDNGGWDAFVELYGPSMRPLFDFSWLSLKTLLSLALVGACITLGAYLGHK

Row | Structure (SMILES) | ASMS ratio (%) n = 1 | ASMS ratio (%) n = 2
1 | CCOc1cccc(-c2cc(OC)c(CN3CCN(c4ccc(C(=O)NS(=O)(=O)c5ccc(NCCSc6ccccc6)c([N+](=O)[O-])c5)cc4)CC3)c(OC)c2)c1 [B2Q059-01, 4-[4-[[4-(3-Ethoxyphenyl)-2,6-dimethoxyphenyl]methyl]piperazin-1-yl]-N-[3-nitro-4-(2-phenylsulfanylethylamino)phenyl]sulfonylbenzamide] | 9.8% | 7.0%
2 | CCOc1cncc(-c2cc(OC)c(CN3CCN(c4ccc(C(=O)NS(=O)(=O)c5ccc(NCCSc6ccccc6)c([N+](=O)[O-])c5)cc4)CC3)c(OC)c2)c1 [B2Q060-01, 4-[4-[[4-(5-Ethoxypyridin-3-yl)-2,6-dimethoxyphenyl]methyl]piperazin-1-yl]-N-[3-nitro-4-(2-phenylsulfanylethylamino)phenyl]sulfonylbenzamide] | 0.0% | 0.0%
3 | CCOc1cccc(-c2cc(CN3CCN(c4ccc(C(=O)NS(=O)(=O)c5ccc(NCCSc6ccccc6)c([N+](=O)[O-])c5)cc4)CC3)cc(C(F)(F)F)c2)c1 [B2Q061-01, 4-[4-[[3-(3-Ethoxyphenyl)-5-(trifluoromethyl)phenyl]methyl]piperazin-1-yl]-N-[3-nitro-4-(2-phenylsulfanylethylamino)phenyl]sulfonylbenzamide] | 15.6% | −17.9%
4 | CCOc1cncc(-c2cc(CN3CCN(c4ccc(C(=O)NS(=O)(=O)c5ccc(NCCSc6ccccc6)c([N+](=O)[O-])c5)cc4)CC3)cc(C(F)(F)F)c2)c1 [B2Q062-01, 4-[4-[[3-(5-Ethoxypyridin-3-yl)-5-(trifluoromethyl)phenyl]methyl]piperazin-1-yl]-N-[3-nitro-4-(2-phenylsulfanylethylamino)phenyl]sulfonylbenzamide] | 9.4% | −3.3%
5 | CCOc1cccc(-c2cc(CN3CCN(c4ccc(C(=O)NS(=O)(=O)c5ccc(NCCSc6ccccc6)c([N+](=O)[O-])c5)cc4)CC3)cc(OC(F)(F)F)c2)c1 [B2Q063-01, 4-[4-[[3-(3-Ethoxyphenyl)-5-(trifluoromethoxy)phenyl]methyl]piperazin-1-yl]-N-[3-nitro-4-(2-phenylsulfanylethylamino)phenyl]sulfonylbenzamide] | 13.3% | −25.5%
6 | CCOc1cncc(-c2cc(CN3CCN(c4ccc(C(=O)NS(=O)(=O)c5ccc(NCCSc6ccccc6)c([N+](=O)[O-])c5)cc4)CC3)cc(OC(F)(F)F)c2)c1 [B2Q064-01] | 8.6% | −1.6%
7 | CCOc1cccc(-c2ccc(CN3CCN(c4ccc(C(=O)NS(=O)(=O)c5ccc(NCCSc6ccccc6)c([N+](=O)[O-])c5)cc4)CC3)c3ccccc23)c1 [B2Q065-01] | 30.6% | −1.6%
8 | CCOc1cccc(C#Cc2ccccc2CN2CCN(c3ccc(C(=O)NS(=O)(=O)c4ccc(NCCSc5ccccc5)c([N+](=O)[O-])c4)cc3)CC2)c1 [B2Q069-01] | 8.8% | 11.0%
9 | CCOc1cncc(C#Cc2ccccc2CN2CCN(c3ccc(C(=O)NS(=O)(=O)c4ccc(NCCSc5ccccc5)c([N+](=O)[O-])c4)cc3)CC2)c1 [B2Q070-01, 4-[4-[[2-[2-(5-Ethoxypyridin-3-yl)ethynyl]phenyl]methyl]piperazin-1-yl]-N-[3-nitro-4-(2-phenylsulfanylethylamino)phenyl]sulfonylbenzamide] | 14.3% | −9.0%
10 | CCOc1cccc(-c2ccccc2CN2CCN(c3ccc(C(=O)NS(=O)(=O)c4ccc(NCCSc5ccccc5)c([N+](=O)[O-])c4)nn3)CC2)c1 [B2Q071-01, 6-[4-[[2-(3-Ethoxyphenyl)phenyl]methyl]piperazin-1-yl]-N-[3-nitro-4-(2-phenylsulfanylethylamino)phenyl]sulfonylpyridazine-3-carboxamide] | 25.0% | 11.2%
11 | CCOc1cncc(-c2ccccc2CN2CCN(c3ccc(C(=O)NS(=O)(=O)c4ccc(NCCSc5ccccc5)c([N+](=O)[O-])c4)nn3)CC2)c1 [B2Q072-01, 6-[4-[[2-(5-Ethoxypyridin-3-yl)phenyl]methyl]piperazin-1-yl]-N-[3-nitro-4-(2-phenylsulfanylethylamino)phenyl]sulfonylpyridazine-3-carboxamide] | 10.2% | 11.4%
12 | CCOc1cccc(-c2ccc(CN3CCN(c4ccc(C(=O)NS(=O)(=O)c5ccc(NCCSc6ccccc6)c([N+](=O)[O-])c5)nn4)CC3)cc2C)c1 [B2Q073-01] | 0.0% | 0.0%
13 | CCOc1cncc(-c2ccc(CN3CCN(c4ccc(C(=O)NS(=O)(=O)c5ccc(NCCSc6ccccc6)c([N+](=O)[O-])c5)nn4)CC3)cc2C)c1 [B2Q074-01] | 18.8% | 15.4%
14 | CCOc1cccc(-c2ccc(CN3CCN(c4ccc(C(=O)NS(=O)(=O)c5ccc(NCCSc6ccccc6)c([N+](=O)[O-])c5)nn4)CC3)c(CC)c2)c1 [B2Q075-01, 6-[4-[[4-(3-Ethoxyphenyl)-2-ethylphenyl]methyl]piperazin-1-yl]-N-[3-nitro-4-(2-phenylsulfanylethylamino)phenyl]sulfonylpyridazine-3-carboxamide] | 0.0% | 0.0%
15 | CCOc1cncc(-c2ccc(CN3CCN(c4ccc(C(=O)NS(=O)(=O)c5ccc(NCCSc6ccccc6)c([N+](=O)[O-])c5)nn4)CC3)c(CC)c2)c1 [B2Q076-01, 6-[4-[[4-(5-Ethoxypyridin-3-yl)-2-ethylphenyl]methyl]piperazin-1-yl]-N-[3-nitro-4-(2-phenylsulfanylethylamino)phenyl]sulfonylpyridazine-3-carboxamide] | 0.0% | –
16 | CCOc1cccc(-c2ccc(CN3CCN(c4ccc(C(=O)NS(=O)(=O)c5ccc(NCCSc6ccccc6)c([N+](=O)[O-])c5)nn4)CC3)cc2F)c1 [B2Q077-01, 6-[4-[[4-(3-Ethoxyphenyl)-3-fluorophenyl]methyl]piperazin-1-yl]-N-[3-nitro-4-(2-phenylsulfanylethylamino)phenyl]sulfonylpyridazine-3-carboxamide] | 14.7% | 17.2%
17 | CCOc1cncc(-c2ccc(CN3CCN(c4ccc(C(=O)NS(=O)(=O)c5ccc(NCCSc6ccccc6)c([N+](=O)[O-])c5)nn4)CC3)cc2F)c1 [B2Q078-01] | 15.6% | 12.1%
18 | CCOc1cccc(-c2ccc(CN3CCN(c4ccc(C(=O)NS(=O)(=O)c5ccc(NCCSc6ccccc6)c([N+](=O)[O-])c5)nn4)CC3)c(OC)c2)c1 [B2Q079-01, 6-[4-[[4-(3-Ethoxyphenyl)-2-methoxyphenyl]methyl]piperazin-1-yl]-N-[3-nitro-4-(2-phenylsulfanylethylamino)phenyl]sulfonylpyridazine-3-carboxamide] | 17.6% | 0.0%
19 | CCOc1cncc(-c2ccc(CN3CCN(c4ccc(C(=O)NS(=O)(=O)c5ccc(NCCSc6ccccc6)c([N+](=O)[O-])c5)nn4)CC3)c(OC)c2)c1 [B2Q080-01, 6-[4-[[4-(5-Ethoxypyridin-3-yl)-2-methoxyphenyl]methyl]piperazin-1-yl]-N-[3-nitro-4-(2-phenylsulfanylethylamino)phenyl]sulfonylpyridazine-3-carboxamide] | 12.6% | 3.6%
20 | CCOc1cccc(-c2cc(CN3CCN(c4ccc(C(=O)NS(=O)(=O)c5ccc(NCCSc6ccccc6)c([N+](=O)[O-])c5)nn4)CC3)cc(OCC)c2)c1 [B2Q081-01, 6-[4-[[3-Ethoxy-5-(3-ethoxyphenyl)phenyl]methyl]piperazin-1-yl]-N-[3-nitro-4-(2-phenylsulfanylethylamino)phenyl]sulfonylpyridazine-3-carboxamide] | −4.8% | 0.6%
21 | CCOc1cncc(-c2cc(CN3CCN(c4ccc(C(=O)NS(=O)(=O)c5ccc(NCCSc6ccccc6)c([N+](=O)[O-])c5)nn4)CC3)cc(OCC)c2)c1 [B2Q082-01, 6-[4-[[3-Ethoxy-5-(5-ethoxypyridin-3-yl)phenyl]methyl]piperazin-1-yl]-N-[3-nitro-4-(2-phenylsulfanylethylamino)phenyl]sulfonylpyridazine-3-carboxamide] | 21.3% | 8.5%
22 | CCOc1cccc(-c2cc(CN3CCN(c4ccc(C(=O)NS(=O)(=O)c5ccc(NCCSc6ccccc6)c([N+](=O)[O-])c5)nn4)CC3)cc(OC(C)C)c2)c1 [B2Q083-01, 6-[4-[[3-(3-Ethoxyphenyl)-5-propan-2-yloxyphenyl]methyl]piperazin-1-yl]-N-[3-nitro-4-(2-phenylsulfanylethylamino)phenyl]sulfonylpyridazine-3-carboxamide] | – | 0.0%
23 | CCOc1cncc(-c2cc(CN3CCN(c4ccc(C(=O)NS(=O)(=O)c5ccc(NCCSc6ccccc6)c([N+](=O)[O-])c5)nn4)CC3)cc(OC(C)C)c2)c1 [B2Q084-01, 6-[4-[[3-(5-Ethoxypyridin-3-yl)-5-propan-2-yloxyphenyl]methyl]piperazin-1-yl]-N-[3-nitro-4-(2-phenylsulfanylethylamino)phenyl]sulfonylpyridazine-3-carboxamide] | 12.6% | −4.9%
